# Results taken from patent US7019144B2, “1,2,4-Triazole derivative, method for preparing the same, and pharmaceutical composition containing the same” (CJ Corp., priority 2002, dated 2006).
# Key:
# COX-1 = biological target: T1, COX-1 (Homo sapiens, UniProt P23219); experiment: Assay for the COX-1 inhibitory activity using U-937 (PGE2 inhibition); assay type: cell-based; settings: for inhibition at 1 µM: 1 μM test compound, U-937 human lymphoma cells, PGE2 inhibition vs DMSO, read-out: Cyclooxygenase (COX) Inhibition (%) COX-1 (1 μM); for COX-1 inhibitory activity in comparison with the reference (Valdecoxib): 1 μM, U-937, comparison in words
# T1 construct: host or cells: U-937 human lymphoma cells
# T1 sequence (P23219 24-599): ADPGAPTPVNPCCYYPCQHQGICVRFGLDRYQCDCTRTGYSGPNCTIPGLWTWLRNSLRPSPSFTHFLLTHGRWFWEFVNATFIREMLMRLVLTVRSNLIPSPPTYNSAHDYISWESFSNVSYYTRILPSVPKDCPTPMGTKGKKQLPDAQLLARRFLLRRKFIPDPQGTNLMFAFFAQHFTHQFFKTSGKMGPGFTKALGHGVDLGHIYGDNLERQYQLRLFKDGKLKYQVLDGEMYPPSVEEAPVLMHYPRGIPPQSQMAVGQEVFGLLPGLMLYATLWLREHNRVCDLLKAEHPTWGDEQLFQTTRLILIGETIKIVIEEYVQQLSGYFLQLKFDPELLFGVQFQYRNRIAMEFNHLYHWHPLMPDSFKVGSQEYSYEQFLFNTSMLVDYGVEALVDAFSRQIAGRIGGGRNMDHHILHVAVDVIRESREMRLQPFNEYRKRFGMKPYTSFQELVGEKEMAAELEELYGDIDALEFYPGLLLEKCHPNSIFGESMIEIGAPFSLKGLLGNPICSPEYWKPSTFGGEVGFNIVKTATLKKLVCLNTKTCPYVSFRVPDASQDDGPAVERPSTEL
# Procedure: The collected cells were diluted with HBSS (×1, Hank's balanced salt solution) to a concentration of 1×10^6 cells/ml. 1 ml of the dilute cell solution was placed into each well of 12-well plates. 5 μl of 1 μM solution of a test compound in DMSO and 5 μl of DMSO as a control were added to the wells. The wells were incubated in CO2 incubator at 37° C. for 15 minutes. Separately, 10 mM stock solution of arachidonic acid in ethanol was diluted ten times in ethanol to prepare 1 mM solution of arachidonic acid. Arachidonic acid acts as a substrate. 10 μl of the 1 mM solution of arachidonic acid was added to each well and incubated at CO2 incubator at 37° C. for 30 minutes. The cell solution of each well was placed in a centrifuge test tube and centrifuged at 10,000 rpm at 4° C. for 5 minutes. The concentration of PGE2 in the collected cells and the supernatant was quantified by means of a monoclonal kit (Cayman Chemicals). The percentages of PGE2 inhibition in a group of the test compound-treated cells in relation to a group of the DMSO-treated cells were calculated. Based on the calculated values, the COX-1 inhibitory activities were evaluated.
# (§1) The percentages of the COX inhibition were calculated according to the following equation: % Inhibition=(concentration of PGE2 in test compound-untreated sample−concentration of PGE2 in test compound-treated sample)/(concentration of PGE2 in test compound-untreated sample)×100
# COX-2 = biological target: T2, COX-2 (Mus musculus, UniProt Q05769); experiment: Assay for the COX-2 inhibitory activity using RAW 264.7 cell line (PGE2, interferon γ/LPS induced); assay type: cell-based; settings: for inhibition at 0.01 µM: RAW264.7, 10 nM test compound, RAW 264.7 cells, interferon γ + LPS, 18 hours, PGE2, read-out: Cyclooxygenase (COX) Inhibition (%) COX-2 (10 nM); for COX-2 inhibitory activity in comparison with the reference (Valdecoxib): 10 nM, RAW 264.7, comparison in words; for selectivity (COX-2 over COX-1): judged from Table 1, in words
# T2 construct: host or cells: RAW 264.7 cells, aspirin-pretreated, then induced with interferon gamma and LPS
# T2 sequence (Q05769 18-604): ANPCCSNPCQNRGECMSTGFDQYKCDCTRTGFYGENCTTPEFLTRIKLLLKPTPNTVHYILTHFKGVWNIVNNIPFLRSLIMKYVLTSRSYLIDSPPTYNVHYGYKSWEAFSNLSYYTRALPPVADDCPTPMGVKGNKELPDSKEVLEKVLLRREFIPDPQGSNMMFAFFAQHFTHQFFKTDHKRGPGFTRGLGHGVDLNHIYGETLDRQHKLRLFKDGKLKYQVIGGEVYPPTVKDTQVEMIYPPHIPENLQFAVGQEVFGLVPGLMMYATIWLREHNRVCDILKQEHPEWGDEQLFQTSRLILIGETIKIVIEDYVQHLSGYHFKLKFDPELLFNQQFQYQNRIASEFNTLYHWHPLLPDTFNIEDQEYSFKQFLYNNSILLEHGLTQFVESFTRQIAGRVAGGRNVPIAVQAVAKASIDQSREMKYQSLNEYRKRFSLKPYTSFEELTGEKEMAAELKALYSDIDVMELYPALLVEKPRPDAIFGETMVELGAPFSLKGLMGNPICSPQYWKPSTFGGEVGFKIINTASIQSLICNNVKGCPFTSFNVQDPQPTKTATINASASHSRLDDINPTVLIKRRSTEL
# Procedure: Each well was treated with 250 μM of aspirin and incubated at 37° C. for 2 hours. […] Then, each well was treated with interferon γ (100 units/ml) and Iipopolysaccharide (LPS, 100 ng/ml) and incubated for 18 hours. The culture media were transferred to another test tubes. The concentration of PGE2 was quantified by means of the EIA kit (Cayman Chemicals).
# as §1
# [1] = tested on: carrageenan-induced paw edema; experiment: Carrageenan-induced paw edema test in rats; assay type: in vivo; settings: for Inhibitory effect (% inhibition): oral administration, foot swelling 3 hours after carrageenan injection vs control; for COX inhibitory effect (paw edema % inhibition) in comparison with Celecoxib: oral, comparison in words
# Procedure: 2. Carrageenan-induced Paw Edema Test in Rats
# The day before the test date, rats were selected in each group so that the average body weight was as close as possible, and the rats were fasted by feed withdrawal prior to the test. At the test date, the rats were orally administered with the test compounds and a control material. After 1 hour, the volume (V0h) of a predetermined portion of the left hind foot of the rats was measured with a plethysmometer. 100 μl of 1% carrageenan solution was subcutaneously injected to the left hind foot of the rats using a syringe with 1 ml capacity. Three hours after the injection of the carrageenan, the volume (V3h) of the predetermined portion of the foot was again measured. The foot swelling variation […] in a group of test compound-treated rats was compared with that of a group of control material-treated rats. With the supposition of 0% inhibition by the control (control material-treated rats), the inhibition percentage of edema of each test compound was determined.
SMILES,inhibition at 1 µM (COX-1),inhibition at 0.01 µM (COX-2),Inhibitory effect (% inhibition) [1],COX-1 inhibitory activity in comparison with the reference (Valdecoxib) (COX-1),COX-2 inhibitory activity in comparison with the reference (Valdecoxib) (COX-2),selectivity (COX-2 over COX-1) (COX-2),COX inhibitory effect (paw edema % inhibition) in comparison with Celecoxib [1]
"COc1ccc(/C=C/c2nc(C(F)(F)F)nn2-c2ccc(S(C)(=O)=O)cc2)cc1 [Example 34, 5-[2-(4-methoxyphenyl)vinyl]-1-(4-methanesulfonylphenyl)-3-trifluoromethyl-1H-[1,2,4]triazole]",23.5%,26.8%,19.3 % inhibition,–,–,–,–
"CCOc1ccc(-c2nc(C(F)(F)F)nn2-c2ccc(S(C)(=O)=O)cc2)cc1 [Example 35, 5-(4-ethoxyphenyl)-1-(4-methanesulfonylphenyl)-3-trifluoromethyl-1H-[1,2,4]triazole]",11.8%,38.6%,32.3 % inhibition,the same as or lower,remarkably enhanced,excellent selectivities,remarkably improved
"COc1ccc(-c2nc(C(F)(F)F)nn2-c2ccc(S(N)(=O)=O)cc2)cc1 [Example 43, 4-[5-(4-methoxyphenyl)-3-trifluoromethyl-[1,2,4]triazol-1-yl]benzene suffonamide]",34.6%,32.3%,39.1 % inhibition,–,–,–,remarkably improved
"NS(=O)(=O)c1ccc(-n2nc(C(F)(F)F)nc2-c2ccc(Br)cc2)cc1 [Example 44, 4-[5-(4-bromophenyl)-3-trifluoromethyl-[1,2,4]triazol-1-yl]benzene sulfonamide]",23.1%,29.9%,28.8 % inhibition,the same as or lower,remarkably enhanced,excellent selectivities,remarkably improved
"CS(=O)(=O)c1ccc(-n2nc(C(F)(F)F)nc2-c2ccc(Br)cc2)nc1 [Example 45, 2-[5-(4-bromophenyl)-3-trifluoromethyl-[1,2,4]triazol-1-yl]-5-methanesulfonyl pyridine]",14.6%,33.6%,21.6 % inhibition,the same as or lower,remarkably enhanced,excellent selectivities,–
